According to patent US11814402B2, “Binuclear palladacycles and their use in the treatment of cancer” (Stellenbosch University, priority 2019, dated 2023):

Tests used:
[1] = test system: human breast adenocarcinoma MCF-7 (estrogen receptor positive) cells; experiment: Cytotoxicity (MTT) assay, MCF-7; format: cell-based; conditions: 48 hours treatment
Method: (§1) These included cell viability tests using a MTT assay, and in some cases Western blots to test for DNA damage using γ-H2AX and PARP cleavage to determine whether or not apoptosis takes place.
The complex solutions were prepared by dissolution in DMSO to obtain 5 mM stock solutions. Solutions were stored at room temperature for no more than a week. […] The 3-(4,5-dimethylthiazol-2-yl)-2,5-diphenyltetrazolium bromide (MTT) assay was then used, as described by the manufacturer's instructions: 10 μL of MTT solution was added to each well. Well plates were then incubated at 37° C. for 4 h. This was followed by addition of 100 μL solubilisation buffer (10% SDS in 0.01 M HCl) and incubation overnight at 37° C. Absorbance at 585 nm was then determined for each well and the mean cell viability was calculated as a percentage of the mean vehicle control. The experiments were performed in triplicate and the data were used to determine the half maximal inhibitory concentration values (IC50).

[2] = Turbidimetric assay - solubility in 10% DMSO:PBS; format: physicochemical; conditions: for aqueous solubility (in words): aqueous media
Method: A 0.01 M pH 7.4 Phosphate Buffered Saline (PBS) solution was prepared by dissolving one PBS tablet (Sigma-Aldrich) in 200 mL distilled water at 25° C. to yield a buffered solution containing 0.01 M phosphate buffer, 0.003 M KCl and 0.14 M NaCl. The solution equilibrated at 25° C. for one hour upon which the pH was confirmed.
A preparation plate (96-well flat bottomed) was prepared by serially diluting the compound to achieve the desired concentrations (5.0 μM to 200 μM). The test plate was prepared by pipetting […] into wells 7-12. Each compound was tested in triplicate thus a single plate could be used to evaluate two compounds. […] of each compound concentration was pipetted from the preparation plate into the test plate to bring the total volume up to 200 μL and to ensure that a 10% (v/v) DMSO/PBS solution is achieved. Test plates were prepared in duplicate and one plate was incubated at room temperature (25° C.) and the second at physiological temperature (37° C.). Both test plates were incubated for 2 hours upon which the UV-Vis absorbance readings were measured at 620 nm. The corrected absorbance readings were obtained by subtracting the blank readings from each concentration absorbance.

[3] = test system: oestrogen receptor positive MCF7 breast cancer cells; conditions: prior report on AJ5; read-out: IC50 MCF-7; cited from earlier work
ME1402 melanoma cells = conditions: Biochem. Pharmacol. 2013, 86, 1650; read-out: IC50 proliferation ME1402 melanoma cells; cited from earlier work
[4] = test system: oestrogen receptor negative MDA-MB-231 breast cancer cells; conditions: prior report on AJ5; cited from earlier work
[5] = test system: human breast adenocarcinoma MDA-MB-231 (estrogen receptor negative) cells; experiment: Cytotoxicity (MTT) assay, MDA-MB-231; format: cell-based; conditions: 48 hours treatment
Method: as §1
The complex solutions were prepared by dissolution in DMSO to obtain 5 mM stock solutions. Solutions were stored at room temperature for no more than a week. […] After 48 hours, the cells were treated with various concentrations of complex (0-1 μM) or the vehicle for 48 hours. The 3-(4,5-dimethylthiazol-2-yl)-2,5-diphenyltetrazolium bromide (MTT) assay was then used, as described by the manufacturer's instructions: 10 μL of MTT solution was added to each well. Well plates were then incubated at 37° C. for 4 h. This was followed by addition of 100 μL solubilisation buffer (10% SDS in 0.01 M HCl) and incubation overnight at 37° C. Absorbance at 585 nm was then determined for each well and the mean cell viability was calculated as a percentage of the mean vehicle control. The experiments were performed in triplicate and the data were used to determine the half maximal inhibitory concentration values (IC50).

WM1158 melanoma cells = conditions: Biochem. Pharmacol. 2013, 86, 1650; read-out: IC50 proliferation WM1158 melanoma cells; cited from earlier work
[6] = Solubility in DMSO and DMSO/water (characterisation data); conditions: for behaviour on addition of water / aqueous medium: test medium; for Solubility: DMSO: in DMSO
[7] = test system: MCF 7 breast cancer cell line tumour; experiment: In vivo anti-tumour activity, MCF 7 (chick embryo model)
Method: (§2) The activity of BTC2 was evaluated in two breast cancer cell lines (MCF 7 and MDA-MB-231). The latter is an aggressive, metastatic cell line in which metastasis is often difficult to prevent or control.
(§3) Metastasis is the process of the spreading of the cancer from its site of origin to other parts of the body. This was evaluated using the same chick embryo model as mentioned above, and again compared to the known drug, paclitaxel.

[8] = test system: MDA-MB 231 breast cancer cell line metastasis; experiment: Metastasis reduction, MDA-MB 231 (chick embryo model); format: in vivo
Method: The ability of BTC2 to prevent metastasis was also evaluated.
as §3
When tested in the aggressive breast cancer cell line, MDA-MB 231, BTC2 was able to induce a 46% reduction in metastasis compared to 64% reduction for paclitaxel.

γ-H2AX in MCF7 cells = experiment: Western blot, γ-H2AX (DNA damage); format: cell-based, human; conditions: treatment for 24 and 48 hours
Method: The complex solutions were prepared by dissolution in DMSO to obtain 0.1 and 0.2 μM stock solutions. Solutions were stored at room temperature for no more than a week. Human MCF7 breast adenocarcinoma cells in RPMI 1640 medium were plated in 6 cm petri dishes at 6×10^5 cells per plate. The cells were treated with the complex solutions for 24 or 48 hours. Cells were then lysed using whole cell lysis buffer (0.5 M tris-HCl, pH 6.8, 2% SDS, 10% glycerol, 1% β-mercaptoethanol and 0.02% bromophenol blue). Samples were boiled for 10 minutes. The proteins were resolved using SDS/PAGE (8-15% gels) as required. They were then transferred to Hybond ECL membranes which were then incubated with primary antibodies against PARP ½ (sc-7150), phospho-H2AX (#2577) and p38 (M000). Thereafter, the membranes were incubated with HRP-conjugated secondary antibodies (1:5000). The antibody-reactive proteins were visualised with a chemiluminescence reaction (ECL) detection system.
The most important proteins which are employed as markers for potential anti-cancer drugs are γ-H2AX, which, if present, is an indication of DNA damage and PARP, which if cleaved, is an indication that apoptosis has been induced. In order to allow for relative quantification of the proteins being detected, a loading control, P38, was used to ensure that loading discrepancies are not interpreted as drug-induced changes.

[9] = test system: MDA-MB-231 breast cancer cell line tumour; experiment: In vivo anti-tumour activity, MDA-MB-231 (chick embryo model); conditions: MDA-MB-231, about half the concentration of paclitaxel
Method: as §2
Again, BTC2 was used at about half the concentration of the control, paclitaxel.
as §3

[10] = turbidimetric assay, 10% DMSO:PBS pH 7.4, 37° C., 2 hours incubation

CC(C)c1cccc(C(C)C)c1[N+]1=Cc2cccc[c]2[Pd-2]1([Cl])[P+](CC[P+](c1ccccc1)(c1ccccc1)[Pd-2]1([Cl])[c]2ccccc2C=[N+]1c1c(C(C)C)cccc1C(C)C)(c1ccccc1)c1ccccc1 (centres unmarked) [AJ5]
IC50 [1]: 180 ± 48 nM | aqueous solubility (in words) [2]: poor solubility | Solubility in 10% DMSO:PBS at 37° C. [2, 10]: 5.98 to 11.97 µg/mL | IC50 [3]: 175 nM | IC50 (ME1402 melanoma cells): 190 nM | IC50 [4]: 193 nM | IC50 [5]: 190 ± 15 nM | IC50 (WM1158 melanoma cells): 200 nM

CC(C)c1cccc(C(C)C)c1[N+]1=Cc2cccc[c]2[Pd-2]1([Cl])[P+](C[P+](c1ccccc1)(c1ccccc1)[Pd-2]1([Cl])[c]2ccccc2C=[N+]1c1c(C(C)C)cccc1C(C)C)(c1ccccc1)c1ccccc1 (centres unmarked) [BC1]
IC50 [1]: 2700 ± 210 nM | Solubility in 10% DMSO:PBS at 37° C. [2, 10]: 10.21 to 20.41 µg/mL | IC50 [5]: 2200 ± 190 nM

CC(C)c1cccc(C(C)C)c1[N+]1=Cc2cccc[c]2[Pd-2]1([Cl])[P+](CCC[P+](c1ccccc1)(c1ccccc1)[Pd-2]1([Cl])[c]2ccccc2C=[N+]1c1c(C(C)C)cccc1C(C)C)(c1ccccc1)c1ccccc1 (centres unmarked) [BC3]
IC50 [1]: 5800 ± 280 nM | Solubility in 10% DMSO:PBS at 37° C. [2, 10]: 6.12 to 12.25 µg/mL | IC50 [5]: 5000 ± 75 nM

CC(C)c1cccc(C(C)C)c1[N+]1=Cc2cccc[c]2[Pd-2]1([Cl])[P+](c1ccccc1)(c1ccccc1)[c-]1cccc1.CC(C)c1cccc(C(C)C)c1[N+]1=Cc2cccc[c]2[Pd-2]1([Cl])[P+](c1ccccc1)(c1ccccc1)[c-]1cccc1.[Fe+2] (centres unmarked) [BC4]
IC50 MCF-7 [1]: Inactive | Solubility in 10% DMSO:PBS at 37° C. [2, 10]: 13.65 to 27.30 µg/mL | IC50 MDA-MB-231 [5]: Inactive | behaviour on addition of water / aqueous medium [6]: completely intolerant of water

CC(C)c1cccc(C(C)C)c1[N+]1=Cc2ccc(OCCOCCO)c[c]2[Pd-2]1([Cl])[P+](c1ccccc1)(c1ccccc1)[c-]1cccc1.CC(C)c1cccc(C(C)C)c1[N+]1=Cc2ccc(OCCOCCO)c[c]2[Pd-2]1([Cl])[P+](c1ccccc1)(c1ccccc1)[c-]1cccc1.[Fe+2] (centres unmarked) [BTC4, [(PdCl{4-[2-(2-hydroxyethoxy)ethoxy]}CH═N{2,6-^iPr2-C6H3})2(μ-Ph2P(C5H4)Fe(C5H4)PPh2]]
IC50 MCF-7 [1]: Inactive | aqueous solubility (in words) [2]: highly insoluble | IC50 MDA-MB-231 [5]: Inactive | Solubility: % DMSO in water [6]: 98 % DMSO in water | Solubility: DMSO [6]: 53700 µg/mL | behaviour on addition of water / aqueous medium [6]: completely intolerant of water

CC(C)c1cccc(C(C)C)c1[N+]1=Cc2ccc(OCCO)c[c]2[Pd-2]1([Cl])[P+](CC[P+](c1ccccc1)(c1ccccc1)[Pd-2]1([Cl])[c]2cc(OCCO)ccc2C=[N+]1c1c(C(C)C)cccc1C(C)C)(c1ccccc1)c1ccccc1 (centres unmarked) [BTC5, [(PdCl{4-(2-hydroxyethoxy})CH═N{2,6-^iPr2-C6H3})2(μ-Ph2P(CH2)2PPh2)]]
solubility at 2 h ([2]; 10% DMSO:phosphate buffered saline, aqueous with cosolvent or surfactant or cyclodextrin, kinetic from dmso stock, turbidimetric assay, 10% DMSO:PBS pH 7.4, 37° C., 2 hours incubation): 13.3 to 26.6 µg/mL

CC(=O)O[C@H]1C(=O)[C@@]2(C)[C@H]([C@H](OC(=O)c3ccccc3)[C@]3(O)C[C@H](OC(=O)[C@H](O)[C@@H](NC(=O)c4ccccc4)c4ccccc4)C(C)=C1C3(C)C)[C@]1(OC(C)=O)CO[C@@H]1C[C@@H]2O [paclitaxel]
tumour regression ([7]; MCF 7, concentration 50 μM): 26% | reduction in metastasis ([8]; MDA-MB 231, 50 μM): 64%

[(PdCl{4-[2-(2-hydroxyethoxy)ethoxy]}CH═N{2,6-^iPr2-C6H3})2(μ-Ph2P(CH2)2PPh2)] [BTC2]
IC50 [1]: 490 ± 20 nM | Solubility in 10% DMSO:PBS at 37° C. [2, 10]: 28.38 to 56.77 µg/mL | tumour regression ([7]; MCF 7, concentration 24.5 μM): 21% | γ-H2AX (Western blot) (γ-H2AX in MCF7 cells): significant amount of γ-H2AX | reduction in metastasis ([8]; MDA-MB 231, 24.4 μM): 46% | IC50 [5]: 580 ± 12 nM | tumour reduction (in words) [9]: able to induce tumour reduction | Solubility: % DMSO in water [6]: 76 % DMSO in water | Solubility: DMSO [6]: 32600 µg/mL

[(PdCl{4-[2-(2-hydroxyethoxy)ethoxy]}CH═N{2,6-^iPr2-C6H3})2(μ-Ph2P(CH2)3PPh2)] [BTC3]
IC50 [1]: 2500 ± 260 nM | IC50 [5]: 2300 ± 190 nM
